Measured values from patent publication US5489609A (Zaidan Hoijn Seisan Kaihatsu Kagaku Kenkyusho, priority 1992, dated 1996).

Assays:
[1] = test system: Hepatopathy in mice (carbon tetrachloride); test: Anti-hepatitis test: hepatopathy in mice (carbon tetrachloride); format: in vivo, ddy strain male mice; conditions: for ALT, mean ± S.D. / AST, mean ± S.D.: 200 mg/kg orally 3 h after carbon tetrachloride, blood 24 h after carbon tetrachloride, * p < 0.05
Protocol: A group of 8 ddy strain male mice (weighing about 30 g) kept fasting from the previous day was treated by intraperitoneal injection of 0.5% carbon tetrachloride in olive oil at a dose of 0.6 ml and thereafter allowed free access to food. Three hours after the administration of carbon tetrachloride, the test compound suspended in powdered gum arabic was given to the animals orally at a dose of 200 mg/kg, and blood samples were drawn from the mice under anesthesia with ether through the abdominal descending aorta 24 hours after the administration of carbon tetrachloride. The collected blood was centrifuged at a rate of 3,000 rpm for 15 min, followed by measurement of the activities of aspartate transaminase (AST) and alanine transaminase (ALT) by means of the Lippie method.

[2] = test system: isolated liver cells of rats; test: Disorder of isolated liver cells (carbon tetrachloride vapor; ALT and AST leached out); format: cell-based; conditions: 37° C., 30 min, * p < 0.05
Protocol: Isolated liver cells of rats were prepared by means of the Segren's collagenase irrigation method, whereby a liver cell suspension was prepared to a concentration of […]. Into 2 ml of the suspension placed in an Erlenmeyer flask was put a test tube of about 0.5 ml capacity containing a 25% carbon tetrachloride solution in olive oil to saturate the reaction system with carbon tetrachloride vapor, and after the flask was tightly stoppered, preincubation was carried out at 37° C. for 30 min. One ml of a solution of the test compound in Hunk's solution was added to the suspension of liver cells, while 1 ml of Hunk's solution was added to a control. After the reaction was allowed to proceed at 37° C. for 30 min, a specifically determined volume of the reaction solution was pipetted out and immediately centrifuged under 500 g for 30 seconds, and ALT and AST leached out into the supernatant liquid were determined for activity by the Lippie method.

[3] = test system: acetaldehyde toxicity; test: Protective activity against acetaldehyde toxicity (death rate within 24 hours); format: in vivo, Rats; conditions: 30 min before acetaldehyde 1,200 mg/kg, 24 h
Protocol: Rats kept fasting with a supply of drinking water were weighed and divided into groups in such a manner that the mean body weight was uniform among the groups, with each group consisting of 10 heads. The rats were given acetaldehyde orally at a dose of 1,200 mg/kg, and the death rate within 24 hours was determined, wherein the test drug substances were administered orally 30 min before the application of acetaldehyde, with the vehicle (0.5% aqueous sodium carboxymethylcellulose) alone being given to a control group.

[4] = test system: Stomach injury with hydrochloric acid/ethanol; test: Anti-ulcer test: stomach injury with hydrochloric acid/ethanol; format: in vivo, male rats of KBL Wistar strain
Protocol: The rats were divided into groups each consisting of 8 heads in such a way that their mean body weights were nearly uniform among the groups, treated by oral administration of hydrochloric acid/ethanol (0.15 mole hydrochloric acid solution in 80% ethanol) at a dose of 5 ml/kg body weight and sacrificed through cervical vertebrae dislocation 1 hour after administration. The stomachs were removed and treated with formalin, and individual ulcers formed in the glandular portion of the stomach were measured in length (mm), with the measured ulcer lengths summed for each rat. The test compound was suspended in a 0.5% aqueous solution of sodium carboxymethylcellulose, and the suspension was given to the test group orally at a dose of 10 ml/kg body weight 30 min before administration of hydrochloric acid/ethanol, whereas the vehicle (0.5% aqueous sodium carboxymethyl-cellulose) alone was applied to a control group.

[5] = test system: Stomach injury through water-immersion constraint stress; test: Anti-ulcer test: stomach injury through water-immersion constraint stress; format: in vivo, male rats of KBL Wistar strain
Protocol: The rats were divided into groups each consisting of 8 heads in such a way that their mean body weights were nearly uniform among the groups, stress-loaded by soaking the animals placed in a stress cage of Univ. of Tokyo type in a water tank at 23° C. up to the xiphoid and then sacrificed through cervical vertebrae dislocation 7.5 hours later. The stomachs were removed and treated with formalin, and individual ulcers formed in the glandular portion of the stomach were measured in length (mm), with the measured ulcer lengths being summed for each rat. The test compound, suspended in a 0.5% aqueous solution of sodium carboxymethylcellulose, was given to the test group orally at a dose of 10 ml/kg body weight 30 min before the water-soaking constraint, whereas the vehicle alone was applied to a control group.

[6] = test system: Rats of KBL Wistar strain; test: Acute toxicity test; format: in vivo; conditions: 7 day period
Protocol: Rats of KBL Wistar strain (weighing about […]), divided into groups each consisting of 3 heads, were treated through oral administration of the test compound suspended in powder gum arabic, followed by observation for any abnormalities over a 7 day period to find the number of dead animals.

[7] = conc. of test soln. 0.0125 mg/dl
[8] = conc. of test soln. 0.025 mg/dl
[9] = 50 mg/kg orally, vs Vehicle No. 1
[10] = 150 mg/kg orally, vs Vehicle No. 3

NCCS(=O)(=O)O [2-Aminoethanesulfonic acid]
ALT, mean ± S.D. [1]: 14609.6 ± 1684.5 IU | AST, mean ± S.D. [1]: 12885.2 ± 2468.3 IU | suppressory activity (hepatopathy in mice) ([1]; 200 mg/kg orally, in words): none of 2-aminoethanesulfonic acid, glutathione and glycyrrhizin that were used as controls at the same dose developed suppressory activity | ALT, mean ± S.D. [2, 7]: 847.6 ± 60.4 IU | AST, mean ± S.D. [2, 7]: 338.8 ± 37.1 IU | ALT, mean ± S.D. [2, 8]: 869.8 ± 87.6 IU | AST, mean ± S.D. [2, 8]: 309.8 ± 32.4 IU | ALT, mean ± S.D. ([2]; conc. of test soln. 0.05 mg/dl): 849.1 ± 60.2 IU | AST, mean ± S.D. ([2]; conc. of test soln. 0.05 mg/dl): 296.3 ± 30.5 IU | ALT, mean ± S.D. ([2]; conc. of test soln. 0.1 mg/dl): 867.7 ± 158.8 IU | AST, mean ± S.D. ([2]; conc. of test soln. 0.1 mg/dl): 318.8 ± 49.5 IU | Death rate ([3]; 250 mg/kg orally): 60% | No. of dead animals (n/10) ([3]; 250 mg/kg orally): 6/10 | Death rate ([3]; 500 mg/kg orally): 50% | No. of dead animals (n/10) ([3]; 500 mg/kg orally): 5/10

NCCS(=O)(=O)O.NCCS(=O)(=O)O.NCCS(=O)(=O)[O-].NCCS(=O)(=O)[O-].[Zn+2] [FTZ, [Bis(2-aminoethanesulfonic acid).bis(2-aminoethanesulfonate)]zinc]
ALT, mean ± S.D. [1]: 8597.1 ± 1450.4 IU | AST, mean ± S.D. [1]: 7024.7 ± 1113.4 IU | ALT, mean ± S.D. [2, 7]: 414.7 ± 36.2 IU | AST, mean ± S.D. [2, 7]: 198.2 ± 22.5 IU | ALT, mean ± S.D. [2, 8]: 459.0 ± 93.8 IU | AST, mean ± S.D. [2, 8]: 186.8 ± 35.3 IU | ALT, mean ± S.D. ([2]; conc. of test soln. 0.05 mg/dl): 389.2 ± 7.3 IU | AST, mean ± S.D. ([2]; conc. of test soln. 0.05 mg/dl): 79.4 ± 12.3 IU | ALT, mean ± S.D. ([2]; conc. of test soln. 0.1 mg/dl): 435.7 ± 25.3 IU | AST, mean ± S.D. ([2]; conc. of test soln. 0.1 mg/dl): 33.5 ± 3.5 IU | Death rate ([3]; 250 mg/kg orally): 40% | No. of dead animals (n/10) ([3]; 250 mg/kg orally): 4/10 | Death rate ([3]; 500 mg/kg orally): 20% | No. of dead animals (n/10) ([3]; 500 mg/kg orally): 2/10 | Incidence of ulcer ([4]; 50 mg/kg orally): 8/8 | Ulcer coefficient (mm) mean ± S.E. ([4]; 50 mg/kg orally, * P < 0.01): 30.4 ± 7.8 mm | Suppression % [4, 9]: 35.5% | Incidence of ulcer ([4]; 75 mg/kg orally): 8/8 | Ulcer coefficient (mm) mean ± S.E. ([4]; 75 mg/kg orally): 30.2 ± 10.2 mm | Suppression % ([4]; 75 mg/kg orally, vs Vehicle No. 2): 42.5% | Incidence of ulcer ([4]; 150 mg/kg orally): 8/8 | Ulcer coefficient (mm) mean ± S.E. ([4]; 150 mg/kg orally, * P < 0.01): 11.7 ± 4.7 mm | Suppression % [4, 10]: 67.9% | UD50 (mg/kg) (95% C.L.) ([4]; oral, 30 min before hydrochloric acid/ethanol): 86.0 mg/kg | Incidence of ulcer ([5]; 50 mg/kg orally): 8/8 | Ulcer coefficient (mm) mean ± S.E. ([5]; 50 mg/kg orally): 28.5 ± 4.6 mm | Suppression % [5, 9]: 10.7% | Incidence of ulcer ([5]; 100 mg/kg orally): 8/8 | Ulcer coefficient (mm) mean ± S.E. ([5]; 100 mg/kg orally, * p < 0.01): 14.4 ± 3.2 mm | Suppression % ([5]; 100 mg/kg orally, vs Vehicle No. 2): 37.1% | Incidence of ulcer ([5]; 150 mg/kg orally): 8/8 | Ulcer coefficient (mm) mean ± S.E. ([5]; 150 mg/kg orally, ** p < 0.01): 17.9 ± 3.2 mm | Suppression % [5, 10]: 48.4% | UD50 (mg/kg) (95% C.L.) ([5]; oral, 30 min before water-soaking constraint): 146.9 mg/kg | Nd/No (No. of dead animals / total No.) ([6]; 1,250 mg/kg oral): 0/3 | Nd/No (No. of dead animals / total No.) ([6]; 2,500 mg/kg oral): 0/3 | Nd/No (No. of dead animals / total No.) ([6]; 5,000 mg/kg oral): 0/3
